Experimental findings from PubChem BioAssay AID1218 (NMMLSC, 2008) are described below.

Structures are written as SMILES. Records with an inconclusive call do not appear. Activity calls are given as the source filed them.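 How the source made its calls: active means score of 100, meaning the red fluorescent reporter moved fully into the nucleus as with estrogen, or estrogen's effect was fully blocked; inactive means score of 0 or 50, meaning partial or no effect.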

Sequence of Estrogen receptor beta (Homo sapiens) (Q92731 whole entry, looked up): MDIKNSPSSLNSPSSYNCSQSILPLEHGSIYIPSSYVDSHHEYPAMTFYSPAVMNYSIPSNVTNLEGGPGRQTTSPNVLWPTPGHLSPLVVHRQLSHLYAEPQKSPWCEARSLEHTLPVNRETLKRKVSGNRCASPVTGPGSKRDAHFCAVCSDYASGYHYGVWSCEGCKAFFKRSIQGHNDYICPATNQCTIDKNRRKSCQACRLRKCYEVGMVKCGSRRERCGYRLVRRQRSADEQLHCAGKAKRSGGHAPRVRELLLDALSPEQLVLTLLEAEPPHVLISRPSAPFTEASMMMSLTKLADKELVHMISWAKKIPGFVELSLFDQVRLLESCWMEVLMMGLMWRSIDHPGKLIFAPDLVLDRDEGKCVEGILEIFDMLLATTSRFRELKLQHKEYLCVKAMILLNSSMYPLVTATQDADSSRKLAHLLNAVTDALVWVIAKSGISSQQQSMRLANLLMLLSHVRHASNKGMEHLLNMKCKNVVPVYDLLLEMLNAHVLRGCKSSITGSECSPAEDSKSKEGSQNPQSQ

The assay addresses Estrogen receptor beta (Homo sapiens) (UniProt Q92731). Briefly: ERbeta agonist-driven PIP3 reporter relocation, confirmation, orthogonal assay for ERbeta ligand project, imaging, Cos7 cells, ERbeta-GFP, PH-RFP reporter (AID 1218). The note with it: PIP3 translocation imaging, at 10 µM, stronger effect = higher value.
`Nc1ncnc2c1ncn2C1CCC(CO)C(O)C1` (stereo not drawn): the response score is 50 (inactive). Take `O=C(O)c1ccc2c(c1)C1C(Cl)C(Sc3ccccc3[N+](=O)[O-])CC1C(c1cccc([N+](=O)[O-])c1)N2` (stereo not drawn): the response score was 0 (inactive). For `Cc1cc(C)c2c(c1)[C@@H]1C=CC[C@@H]1[C@H](c1ccc(S(=O)(=O)N3CCOCC3)cc1)N2`, the response score is 100. As for `O=C(O)c1cc(Cl)c2c(c1)[C@@H]1C=CC[C@@H]1[C@H](c1ccc(S(=O)(=O)N3CCOCC3)cc1)N2`, the response score is 50 (inactive). For `Cc1cc(-c2nn3c(-c4ccccc4)nnc3s2)c2ccccc2n1`, the response score was 100. To `COc1cccc(NS(=O)(=O)c2ccc3c(c2)C2C=CCC2C(c2ccc(C(=O)O)cc2)N3)c1` (stereo not drawn) belongs 50 (inactive); to `Brc1cc2c(cc1C1Nc3ccccc3C3C=CCC31)OCO2` (stereo not drawn), 0 (inactive); to `COc1ccccc1N1CCN(C(=O)c2ccc3nc(-c4ccco4)c(-c4ccco4)nc3c2)CC1`, 100.
